Assay results as given in patent US9956199B2, “Chromane-like cyclic prenylflavonoids for the medical intervention in neurological disorders” (priority 2011, dated 2018).
Entries after “also recorded” stand apart in the source; their conditions may differ.

Experiments:
[1] = tested on: MEF E16 cells; assay: immunocytochemical staining for DCX and Map2ab in MEF cultures (neuronal differentiation); assay type: cell-based, mouse; settings: Neurobasal plus 1% FCS, 10 μM, 7 days; for number of DCX/Map2ab double positive cells: FIG. 3B
Experimental: Following the results from the Luciferase assay described in Example 17, the inventors examined the ability of compounds according to the invention and reference compounds to promote differentiation of MEF E16 cells, using immunocytochemical staining with DCX and Map2ab antibodies.
Compound 1a at 10 and 100 μM was analyzed for its effect on the expression of the neuronal specific markers DCX and Map2ab using primary fetal mouse brain derived cells stimulated in DMEM-KO media.
Mouse embryonic day 16 forebrain cells were prepared as described in Example 17. Before seeding the cells, glass-coverslips were coated and prepared. Glass-coverslips (13 mm) (Menzel GmbH, Braunschweig, Germany) were incubated in 1 M HCl at 65° C. overnight and stored in isopropanol until further use. Coverslips were put into 24-well test plates and air-dried. Subsequently coverslips were incubated for 1 h with 100 μg/ml Poly-L-ornithin solution at 37° C. After washing three times with sterile water coverslips were incubated with 5 μg/ml Laminin solution for 2 h. Immediately after removal of the Laminin solution cells were seeded (40.000 cells/well) in DMEM-KO plus supplement or in NB-B27 plus 1% FCS medium. One day later, cells had attached to the substrate. Cells were stimulated with the above-mentioned substances (in DMEM-KO plus supplement medium: 10 μM and 100 μM; in NB-B27 plus 1% FCS medium: 10 μM) for 3 or 7 days. In the 7 day group, medium including the substances was replaced after three days. Cultures were maintained at 37° C. in a humidified incubator with 5% CO2.
Cells were fixed with phosphate-buffered 4% paraformaldehyde (Sigma-Aldrich, Taufkirchen, Germany). […] The specimens were incubated overnight at 4° C. with the primary antibodies at the following dilutions in FSGB: rabbit anti Doublecortin (DCX) 1:500 (NEB, Frankfurt, Germany) and mouse anti-Map 2a+2b 1:400 (Sigma-Aldrich, Taufkirchen, Germany). After washing three times with FSGB, cells were incubated with the species-specific secondary antibodies, which were conjugated to fluorochromes, for 2 hours in the dark at room temperature. To remove unbound secondary antibodies, cells were washed again with PBS. Nuclear counterstaining was performed with 4′,6′-diamidino-2-phenylindole dihydrochloride hydrate (DAPI) at […] (Sigma Aldrich, Taufkirchen, Germany). Finally, cells were washed again three times with PBS and mounted on microscope slides using Prolong Antifade reagent (Invitrogen, Oreg., USA).
The immunostainings were examined using Olympus IX81 inverted research microscope and the software Volocity 5.3.1. To quantify the number of cells, five indiscriminately chosen visual fields per coverslip were selected under a focus of 40 times. The total number of cells (DAPI positive cells), the number of DCX positive, Map2ab positive, and DCX/Map2ab double positive cells was determined.

[2] = tested on: promoter of the neuronal precursor specific gene doublecortin (DCX); assay: DCX promoter firefly-luciferase assay in primary fetal mouse brain derived (MEF) cells; assay type: cell-based; settings: for stimulatory effect on the DCX promoter activity (FF/R relative to control): DCX promoter-luciferase transfected MEF cells, stimulated three days; for effect on DCX promoter induction: 10 μM, MEF cells, three days
Experimental: Primary mouse embryonic day 16 forebrain (MEF) cultures were prepared as follows. Pregnant NMRI mice (Charles River Laboratories, Sulzfeld, Germany) were sacrificed and the uteri promptly removed and immersed in ice-cold Dulbecco's phosphate buffered saline solution—DPBS (PAA, Pasching, Austria). Eight embryonic day (E) 16 embryos were released from the uteri; forebrains were taken out, separated from surrounding tissues and mechanically dissociated using a razor blade. Subsequently the dissociated cells were collected by 5 min centrifugation at 120×g. The pellet was resuspended in 10 ml PPD-solution containing 0.01% papain (Worthington, England), 0.1% Dispasell (Roche, Basel, Switzerland), 0.01% DNasel (Worthington, England), 12.4 mM MgSO4 dissolved in HBSS w/o Ca/Mg (PAA, Pasching, Austria). The cell suspension was incubated at 37° C. and triturated every ten minutes for three times. The cell suspension was then centrifuged at 120×g for 5 minutes and washed three times in Neurobasal medium (Gibco BRL, Germany) supplemented with 2% (v/v) B27 (Gibco BRL, Karlsruhe), 2 mM L-glutamine, 100 μg/ml Penicillin/Streptomycin (PAN Biotech GmbH, Aidenbach, Germany). Finally, the cell preparation was resuspended in 12 ml Neurobasal medium supplemented with B27 (Gibco BRL, Karlsruhe), 2 mM L-glutamine, 100 μg/ml Penicillin/Streptomycin (PAN Biotech GmbH, Aidenbach, Germany), 20 ng/ml Epidermal Growth Factor—rhEGF, 20 ng/ml Fibroblast Growth Factor—rhFGF (R&D Systems, Wiesbaden-Nordenstadt, Germany) and 2 μg/ml Heparin (Sigma-Aldrich, Taufkirchen, Germany) (NB plus all), seeded in one T75 flask (TPP, Switzerland) and maintained in a humidified atmosphere at 37° C. and 5% CO2. […] On this day (day 2), half of the medium was refreshed and on day 4 cells were passaged. To passage the cells, the culture medium containing the floating neurospheres was collected in a 15 ml tube (Corning, Lowell, USA) and centrifuged at 120×g for 5 min. For dissociation, the pellet was resuspended in 500 μl Accutase (PAA, Pasching, Austria) and triturated using a 1 ml pipette. The cell suspension was incubated at 37° C. for 10 min, and then, 10 ml media were added. Cell number was determined by Trypan blue exclusion.
Luciferase assays were performed using a noncommercial dual luciferase enzyme assay system (Dyer et al., 2000, Anal Biochem). In this system, a co-transfection with pDCX-Luci and a control vector driving Renilla-luciferase under the CMV promoter was performed. The two different luciferases have different specific substrates and, therefore, the DCX regulatory region driven firefly luciferase activity can be distinguished from CMV driven Renilla-luciferase. For analysis, the firefly luciferase activity was normalized against the CMV driven Renilla-luciferase. For each transfection reaction, a volume containing two million cells was transferred into a 15 ml tube (Corning, Lowell, USA), centrifuged at 120×g for 5 min to pellet the cells and resuspended in 100 μl Amaxa Mouse Neural Stem Cell Nucleofector Kit (Lonza, Kln, Germany). Then, pDCX-Luci (Karl, 2005) and pRL3 (Promega, Mannheim, Germany) (5 μg each) were added and the entire reaction mix was transferred into an Amaxa transfection cuvette. Transfection was done using the A-033 program in the Amaxa Nucleofector II (Lonza, Kln, Germany). Transfected cells were then pipetted into 20 ml of DMEM knockout medium (Gibco BRL, Germany) containing 20% serum replacement supplement (PAN Biotech GmbH, Aidenbach, Germany), 2 mM L-glutamine (PAN Biotech GmbH, Aidenbach, Germany) and 100 μg/ml Penicillin/Streptomycin (PAN Biotech GmbH, Aidenbach, Germany) (DMEM-KO plus supplements) in a 50 ml tube (Corning, Lowell, USA). From this resulting cell suspension, 200 μl per well were plated in Poly-Ornithine/Laminin coated 96-well-luciferase plates (Wimmer & Macho, Wels, Austria) in a cell density of 20.000 cells per well, as described herein below.

| SMILES | number of DCX/Map2ab double positive cells [1] | stimulatory effect on the DCX promoter activity (FF/R relative to control) [2] | effect on DCX promoter induction [2] | number of DCX positive cells ([1]; FIG. 3A) |
| --- | --- | --- | --- | --- |
| Cc1c(C)c2c(c(C)c1O)CCC(C)(CCCC(C)CCCC(C)CCCC(C)C)O2 (racemic) [tocopherol, 2,5,7,8-tetramethyl-2-(4,8,12 trimethyltridecyl)chroman-6-ol] | marginally increase |  |  |  |
| CC(C)=CCc1c(O)cc2c(c1O)C(=O)CC(c1ccc(O)cc1)O2 (centres unmarked) [6-prenylnaringenin, 5,7-dihydroxy-2-(4-hydroxyphenyl)-6-(3-methylbut2-en-1yl)chroman-4-one] | Good results |  |  |  |
| CC(C)=CCc1c(O)cc(O)c2c1OC(c1ccc(O)cc1)CC2=O (centres unmarked) [8-prenylnaringenin, 5,7-dihydroxy-2-(4-hydroxyphenyl)-8-(3-methylbut2-en-1yl)chroman-4-one] | Good results |  |  |  |
| COc1cc2c(c(O)c1C(=O)CCc1ccc(O)cc1)CCC(C)(C)O2 [Compound 1c, 1-(5-hydroxy-7-methoxy-2,2-dimethylchroman-6-yl)-3-(4-hydroxyphenyl)propan-1-one] |  | significantly and strongly induce; also recorded: very strong and significant stimulatory effect |  |  |
| COc1cc2c(c(O)c1C(=O)/C=C/c1ccc(O)c(O)c1)C=CC(C)(C)O2 [Compound 1e, (2E)-1-(5-Hydroxy-7-methoxy-2,2-dimethyl-2H-chromen-6-yl)-3-(3,4-dihydroxyphenyl)prop-2-en-1-one] |  | significantly and strongly induce; also recorded: very strong and significant stimulatory effect |  |  |
| COc1cc2c(c(O)c1C(=O)/C=C/c1ccc3c(c1)OCO3)C=CC(C)(C)O2 [Compound 1f, (2E)-3-(benzo[d][1,3]dioxol-6-yl)-1-(5-hydroxy-7-methoxy-2,2-dimethyl-2H-chromen-6-yl)prop-2-en-1-one] |  | significantly and strongly induce; also recorded: very strong and significant stimulatory effect |  |  |
| COc1cc2c(c(O)c1C(=O)/C=C/c1ccc(O)cc1)C=CC(C)(CCC=C(C)C)O2 (centres unmarked) [Compound 1g, (2E)-1-(5-hydroxy-7-methoxy-2-methyl-2-(4-methylpent-3-enyl)-2H-chromen-6-yl)-3-(4-hydroxyphenyl)prop-2-en-1-one] |  |  | good results |  |
| CC1(C)C=Cc2c(cc3c(c2O)C(=O)CC(c2ccc(O)cc2)O3)O1 (centres unmarked) [Compound 2a, 5-Hydroxy-2-(4-hydroxy-phenyl)-8,8-dimethyl-2,3-dihydro-8H-pyrano[3,2-g]chromen-4-one] |  | stimulatory effect on the DCX promoter activity was also observed | good results |  |
| CC1(C)C=Cc2c(cc(O)c3c2OC(c2ccc(O)cc2)CC3=O)O1 (centres unmarked) [Compound 3b, 5-Hydroxy-2-(4-hydroxy-phenyl)-8,8-dimethyl-2,3-dihydro-8H-pyrano[2,3-f]chromen-4-one] |  |  | good results |  |
| COc1cc2c(c(O)c1C(C)=O)C=CC(C)(C)O2 [ENDF4, 1-(5-hydroxy-7-methoxy-2,2-dimethyl-2H-chromen-6-yl)-ethanone] | Good results; also recorded: increased slightly more | did not have any significant stimulatory effect |  | strongly enhanced the number of DCX positive cells |
| Cc1c(C)c2c(c(C)c1O)CCC(C)(C)O2 [chromanol, 2,2,5,7,8-Pentamethyl-6-chromanol, reference compound] | marginally increase | did not have any significant stimulatory effect |  |  |
| COc1cc(O)c(CC=C(C)C)c2c1C(=O)CC(c1ccc(O)cc1)O2 (centres unmarked) [isoxanthohumol, 7-hydroxy-2-(4-hydroxyphenyl)-5-methoxy-8-(3-methylbut-2-en-1-yl)chroman-4-one, reference compound] | Good results | did not have any significant stimulatory effect |  |  |
